# Patent US12157730B2, “Heteroaryl derivative, method for producing same, and pharmaceutical composition comprising same as effective component” (VORONOI INC., priority 2019, dated 2024)
# Biological target: T1, Ba/F3 cell EGFR Exon20 ins NPH (Homo sapiens, UniProt P00533, INS773NPH)
# T1 construct: expressed in transfected cells; host or cells: Ba/F3
# Assay: Ba/F3 cell proliferation suppression, EGFR Exon20 ins NPH
# Type: cell-based
# Settings: GI50 class; Ba/F3 cell line with NPH inserted at Exon20 of EGFR; 72 hours
# In short: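 Seed 3000–5000 cells/well; after 24 h add compound (12 conc., 0.3 nM–50 um final); incubate 72 h; add CellTiter-Glo, 10 min room temperature; read luminescence; GI50 from % growth vs control, triplicate.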
row,Ba/F3 (NPH) Activity,Structure (SMILES)
1,B (50 nM ≤ GI50 < 500 nM),"C=CC(=O)Nc1cc(Nc2cc(N3OCC[C@@H]3c3ccc(F)cc3F)ncn2)c(OC)cc1-n1cncc1C [compound 377, N-(5-((6-((R)-3-(2,4-difluorophenyl)isoxazolidine-2-yl)pyrimidine-4-yl)amino)-4-methoxy-2-(5-methyl-1H-imidazole-1-yl)phenyl)acrylamide]"
2,A (GI50 < 50 nM),"C=CC(=O)Nc1cc(Nc2cc(N3OCC[C@@H]3c3ccc(Cl)cc3)ncn2)c(OC)cc1N1CCC(N2CCN(CC)CC2)CC1 [Example 254, N-(5-((6-((R)-3-(4-chlorophenyl)isoxazolidine-2-yl)pyrimidine-4-yl)amino)-2-(4-(4-ethylpiperazine-1-yl)piperidine-1-yl)-4-methoxyphenyl) acrylamide]"
3,A (GI50 < 50 nM),"C=CC(=O)Nc1cc(Nc2cc(N3OCC[C@@H]3c3cccc4ccccc34)ncn2)c(OC)cc1N1CCC(N2CCN(C)CC2)CC1 [compound 482, N-(4-methoxy-2-(4-(4-methylpiperazine-1-yl)piperidine-1-yl)-5-((6-((R)-3-(naphthalene-1-yl)isoxazolidine-2-yl)pyrimidine-4-yl)amino)phenyl)acrylamide]"
4,A (GI50 < 50 nM),"C=CC(=O)Nc1cc(Nc2cc(N3OCC[C@@H]3c3cccc(C)c3F)ncn2)c(OC)cc1N1CCC(N2C[C@H](C)N(C3CC3)C[C@@H]2C)CC1 [Example 123, N-(2-(4-((2S,5S)-4-cyclopropyl-2,5-dimethylpiperazine-1-yl)piperidine-1-yl)-5-((6-((R)-3-(2-fluoro-3-methylphenyl)isoxazolidine-2-yl)pyrimidine-4-yl)amino)-4-methoxyphenyl) acrylamide]"
5,A (GI50 < 50 nM),"C=CC(=O)Nc1cc(Nc2cc(N3OCC[C@@H]3c3cccc(C#N)c3)ncn2)c(OC)cc1N1CCC(N2CCN(C3CC3)[C@H](C)C2)CC1 [Example 126, N-(5-((6-((R)-3-(3-cyanophenyl)isoxazolidine-2-yl)pyrimidine-4-yl)amino)-2-(4-((R)-4-cyclopropyl-3-methylpiperazine-1-yl)piperidine-1-yl)-4-methoxyphenyl) acrylamide]"
6,C (500 nM ≤ GI50 < 5000 nM),"C=CC(=O)Nc1cc(Nc2cc(N3OCC[C@@H]3c3ccc4ccccc4c3)ncn2)c(OC)cc1N1C[C@H](C)O[C@@H](C)C1 [compound 660, N-(2-((2S,6S)-2,6-dimethylmorpholino)-4-methoxy-5-((6-((R)-3-(naphthalene-2-yl)isoxazolidine-2-yl)pyrimidine-4-yl)amino)phenyl)acrylamide]"
7,A (GI50 < 50 nM),"C=CC(=O)Nc1cc(Nc2cc(N3OCC[C@@H]3Cc3ccccc3)ncn2)c(OC)cc1N1CCN(CCN(C)C)CC1 [compound 961, N-(5-((6-((S)-3-benzylisoxazolidine-2-yl)pyrimidine-4-yl)amino)-2-(4-(2-(dimethylamino)ethyl)piperazine-1-yl)-4-methoxyphenyl) acrylamide]"
8,A (GI50 < 50 nM),"C=CC(=O)Nc1cc(Nc2cc(N3OCC[C@@H]3c3cccc(OC)c3)ncn2)c(OC)cc1N1CCC(N2CC[C@@H](N(C)C)C2)CC1 [compound 728, N-(2-(4-((R)-3-(dimethylamino)pyrolidine-1-yl)piperidine-1-yl)-4-methoxy-5-((6-((R)-3-(3-methoxyphenyl)isoxazolidine-2-yl)pyrimidine-4-yl)amino)phenyl)acrylamide]"
9,A (GI50 < 50 nM),"C=CC(=O)Nc1cc(Nc2cc(N3OCC[C@@H]3c3ccccc3)ncn2)c(OC)cc1N1CCN(CC2CC2)CC1 [Example 277, N-(2-(4-(cyclopropylmethyl)piperazine-1-yl)-4-methoxy-5-((6-((R)-3-phenylisoxazolidine-2-yl)pyrimidine-4-yl)amino)phenyl) acrylamide]"
10,B (50 nM ≤ GI50 < 500 nM),"C=CC(=O)Nc1cc(Nc2cc(N3OCC[C@@H]3c3cc(F)cc(F)c3)ncn2)c(OC)cc1N1CCO[C@@H](C)C1 [compound 337, N-(5-((6-((R)-3-(3,5-difluorophenyl)isoxazolidine-2-yl)pyrimidine-4-yl)amino)-4-methoxy-2-((S)-2-methylmorpholino)phenyl)acrylamide]"
11,A (GI50 < 50 nM),"C=CC(=O)Nc1cc(Nc2cc(N3OCC[C@@H]3c3cccc(C)c3F)ncn2)c(OC)cc1N1CCC(N2CCN(C3CCC3)CC2)CC1 [Example 78, N-(2-(4-(4-cyclobutylpiperazine-1-yl)piperidine-1-yl)-5-((6-((R)-3-(2-fluoro-3-methylphenyl)isoxazolidine-2-yl)pyrimidine-4-yl)amino)-4-methoxyphenyl) acrylamide]"
12,A (GI50 < 50 nM),"C=CC(=O)Nc1cc(Nc2cc(N3OCC[C@@H]3c3ccc(F)c(Cl)c3)ncn2)c(OC)cc1N1CCC(N2CCN(C)CC2)CC1 [compound 719, N-(5-((6-((R)-3-(3-chloro-4-fluorophenyl)isoxazolidine-2-yl)pyrimidine-4-yl)amino)-4-methoxy-2-(4-(4-methylpiperazine-1-yl)piperidine-1-yl)phenyl) acrylamide]"
13,A (GI50 < 50 nM),"C=CC(=O)Nc1cc(Nc2cc(N3OCC[C@@H]3Cc3cccc(F)c3Cl)ncn2)c(OC)cc1N1CCC(N2CCN(C3CC3)[C@@H](C)C2)CC1 [compound 1037, N-(5-((6-((S)-3-(2-chloro-3-fluorobenzyl)isoxazolidine-2-yl)pyrimidine-4-yl)amino)-2-(4-((S)-4-cyclopropyl-3-methylpiperazine-1-yl)piperidine-1-yl)-4-methoxyphenyl) acrylamide]"
14,A (GI50 < 50 nM),"C=CC(=O)Nc1cc(Nc2cc(N3OCC[C@@H]3c3ccc(Cl)c(F)c3)ncn2)c(OC)cc1N1C[C@H]2C[C@@H]1CO2 [compound 863, N-(2-((1R,4R)-2-oxa-5-azabicyclo [2.2.1]heptane-5-yl)-5-((6-((R)-3-(4-chloro-3-fluorophenyl)isoxazolidine-2-yl)pyrimidine-4-yl)amino)-4-methoxyphenyl) acrylamide]"
15,A (GI50 < 50 nM),"C=CC(=O)Nc1cc(Nc2cc(N3OCC[C@@H]3c3cccc(C(F)(F)F)c3)ncn2)c(OC)cc1N1CC[C@@H](N(C)C)C1 [compound 505, N-(2-((R)-3-(dimethylamino)pyrolidine-1-yl)-4-methoxy-5-((6-((R)-3-(3-(trifluoromethyl)phenyl)isoxazolidine-2-yl)pyrimidine-4-yl)amino)phenyl)acrylamide]"
16,A (GI50 < 50 nM),"C=CC(=O)Nc1cc(Nc2cc(N3OCC[C@@H]3c3cccc(C)c3F)ncn2)c(OC)cc1N1CCC(N2CCOCC2)CC1 [compound 856, N-(5-((6-((R)-3-(2-fluoro-3-methylphenyl)isoxazolidine-2-yl)pyrimidine-4-yl)amino)-4-methoxy-2-(4-morpholinopiperidine-1-yl)phenyl)acrylamide]"
17,A (GI50 < 50 nM),"C=CC(=O)Nc1cc(Nc2cc(N3OCC[C@@H]3c3cccc(Cl)c3C)ncn2)c(OC)cc1N1CCC(N2C[C@H]3C[C@@H]2CO3)CC1 [compound 532, N-(2-(4-((1R,4R)-2-oxa-5-azabicyclo[2.2.1]heptane-5-yl)piperidine-1-yl)-5-((6-((R)-3-(3-chloro-2-methylphenyl)isoxazolidine-2-yl)pyrimidine-4-yl)amino)-4-methoxyphenyl) acrylamide]"
18,A (GI50 < 50 nM),"C=CC(=O)Nc1cc(Nc2cc(N3OCC[C@@H]3c3ccc(F)cc3F)ncn2)c(OC)cc1N1CCC(N(C)CCN(C)C)CC1 [compound 422, N-(5-((6-((R)-3-(2,4-difluorophenyl)isoxazolidine-2-yl)pyrimidine-4-yl)amino)-2-(4-((2-(dimethylamino)ethyl)(methyl)amino)piperidine-1-yl)-4-methoxyphenyl) acrylamide]"
19,A (GI50 < 50 nM),"C=CC(=O)Nc1cc(Nc2cc(N3OCC[C@@H]3c3ccc(F)c(Cl)c3)ncn2)c(OC)cc1N1CCN(C(C)=O)CC1 [compound 907, N-(2-(4-acetylpiperazine-1-yl)-5-((6-((R)-3-(3-chloro-4-fluorophenyl)isoxazolidine-2-yl)pyrimidine-4-yl)amino)-4-methoxyphenyl) acrylamide]"
20,A (GI50 < 50 nM),"C=CC(=O)Nc1cc(Nc2cc(N3OCC[C@@H]3c3cccc(Cl)c3F)ncn2)c(OC)cc1N(C)CCN(C)C [compound 746, N-(5-((6-((R)-3-(3-chloro-2-fluorophenyl)isoxazolidine-2-yl)pyrimidine-4-yl)amino)-2-((2-(dimethylamino)ethyl)(methyl)amino)-4-methoxyphenyl) acrylamide]"
21,A (GI50 < 50 nM),"C=CC(=O)Nc1cc(Nc2cc(N3OCC[C@@H]3c3cccc(Cl)c3)ncn2)c(OC)cc1N1CCC(N2CCN(C(C)=O)CC2)CC1 [compound 471, N-(2-(4-(4-acetylpiperazine-1-yl)piperidine-1-yl)-5-((6-((R)-3-(3-chlorophenyl)isoxazolidine-2-yl)pyrimidine-4-yl)amino)-4-methoxyphenyl) acrylamide]"
22,A (GI50 < 50 nM),"C=CC(=O)Nc1cc(Nc2cc(N3OCC[C@@H]3c3ccc(F)c(Cl)c3)ncn2)c(OC)cc1N1CC[C@H](N(C)C)C1 [compound 906, N-(5-((6-((R)-3-(3-chloro-4-fluorophenyl)isoxazolidine-2-yl)pyrimidine-4-yl)amino)-2-((S)-3-(dimethylamino)pyrolidine-1-yl)-4-methoxyphenyl) acrylamide]"

row,Structure (SMILES),Ba/F3 (NPH) Activity
1,"C=CC(=O)Nc1cc(Nc2cc(N3OCC[C@@H]3c3cc(F)ccc3F)ncn2)c(OC)cc1N1CCC(N2CC3CCC(C2)N3C2CC2)CC1 [Example 134, N-(2-(4-(8-cyclopropyl-3,8-diazabicyclo[3.2.1]octan-3-yl)piperidine-1-yl)-5-((6-((R)-3-(2,5-difluorophenyl)isoxazolidine-2-yl)pyrimidine-4-yl)amino)-4-methoxyphenyl) acrylamide]",A (GI50 < 50 nM)
